From publication PMC4980838 (European journal of medicinal chemistry, 2010)

Assays:
[1] = target: recombinant human PDE5 enzyme (Homo sapiens, UniProt O76074); test: Phosphodiesterase assay; format: biochemical
[2] = system: human HT-29 colon tumor cell line; test: Tumor cell growth inhibition, HT-29; format: cell-based; details: HT-29, 72 h, read-out: Growth inhibition IC50

PDE5 inhibitory activity (in words) [1]: did not show PDE5 inhibitory activity
IC50 [2]: 1600 nM
SMILES: COC(=O)[C@@H]1Cc2c([nH]c3ccccc23)[C@@H](c2ccccc2Br)N1C(=O)CCl [Compound 6d, Methyl (1R,3S)-1-(2-bromophenyl)-2-(2-chloroacetyl)-2,3,4,9-tetrahydro-1H-β-carboline-3-carboxylate]
